{"source": "patent US9511074B2", "about": "“Methods of treating disorders associated with protein polymerization” (UNIVERSITY OF PITTSBURGH—OF THE COMMONWEALTH SYSTEM OF …, priority 2009, dated 2016)", "key": {"[1]": {"test_system": "ATZ in the HTO/Z cell line", "assay": "Pulse labeling and pulse-chase labeling of ATZ in the HTO/Z line", "format": "cell-based, human", "experimental": "Radioimmunoprecipitation, SDS-PAGE and Immunoblot Analysis Biosynthetic labeling, pulse-chase labeling, immunoprecipitation and SDS-PAGE/fluorography for AT followed previously published protocols (1). […] For the pulse labeling experiments, HTO/Z cells were incubated for 48 hours in the absence or presence of CBZ in several different concentrations and then subjected to labeling for 30 mins. The cell lysates were then examined by immunoprecipitation and the immunoprecipitates analyzed by SDS-PAGE/fluorography. For the pulse-chase experiments, HTO/Z cells were incubated for 48 hours in the absence of presence of CBZ 30 μM and then pulse labeled for 30 mins. The cells were then washed and incubated in growth medium without tracer for several different time intervals to constitute the chase. CBZ 30 μM was included during the pulse and chase periods. The extracellular fluid and cell lysate samples were subjected to immunoprecipitation and the immunoprecipitates analyzed by SDS-PAGE/fluorography. All fluorograms were subjected to densitometry. The relative densitometric value of T0 is set at 100% and the remainder of the data set expressed as % of this control. The data are shown as mean+/−SE and the mean value at each time point is shown at the bottom of the figure."}, "human AT": {"test_system": "human AT", "assay": "Serum levels of human ATZ in PiZ mice by ELISA", "format": "in vivo, mouse", "details": "CBZ 250 mg/kg/day for 2 weeks", "experimental": "For ELISA on mouse serum specimens, Nunc Maxisorp plates were first coated with goat anti-human AT (Bethyl), then blocked in PBS-Tween20 containing 5% nonfat milk. Serum samples were loaded into the wells in 1:20,000 dilution using purified human AT serial dilutions (1.56 to 100 ng/ml) as a standard. Rabbit-anti human AT (Dako) was used as […], and goat anti-rabbit IgG-HRP (Dako) a secondary antibody. Protein levels were detected with OPD (Sigma)."}, "PiZ mice [2]": {"test_system": "PiZ mice", "assay": "Hepatic fibrosis in PiZ mice (Sirius Red, hepatic hydroxyproline)", "format": "in vivo, mouse", "from_the_text": "Transgenic Mice PiZ mice that have been bred into the C57/BL6 background have been described previously (1). For the second and third series of experiments with CBZ we used PiZ mice that were re-derived onto the FVB/N background for a move into a new animal facility. The transgene that was used to generate the PiZ mouse is a genomic fragment of DNA that contains the coding regions of the ATZ gene together with introns and ˜2 kilobases of upstream and downstream flanking regions (10). […] In this perspective it is not an exact phenocopy of the classical form of AT deficiency. In particular it cannot be a model for the loss-of-function mechanisms associated with the classical form of AT deficiency. It is known to have abundant expression of ATZ in hepatocytes and other cell types that express ATZ in humans (11). In the liver there are abundant ATZ-containing intrahepatocytic globules and inflammation that is characteristic of what is seen in the human liver (11,12). […] Taken together, these observations indicate that the PiZ mouse is an appropriate model for the gain-of-toxic function mechanism that is responsible for liver damage in the classical form of AT deficiency. Indeed, the fact that these mice are endowed with endogenous AT function and therein normal levels of AT in the serum and body fluids make them an even more ‘pure’ model for liver damage by gain-of-toxic function. PiZ×GFP-LC3 mice, which generated green fluorescent autophagosomes, have been described previously (2). PiZ×IKKβ.hep were generated by mating of PiZ to IKKβ.hep, which has conditional hepatocyte-specific disruption of NF.B activation (M. Karin, 17). There is increased injury in the liver of these mice as evidenced by the hepatic hydroxyproline content, 153.3% of that in the PiZ mouse (FIG. 7).\nHistology Sections of liver tissue were stained with hematoxylin and eosin, PAS, PAS after diastase treatment, TUNEL, PCNA, Ki67 and Sirius Red using standard techniques (18). Previous methods for staining with antibody to smooth muscle actin were used (19). Each was examined by the pathologist (GM) who was completely blinded to the experimental protocol. Sections of liver tissue were also stained with goat anti-human AT followed by donkey anti-goat Cy3 to detect AT-containing intracellular globules. Finally sections of liver tissue were stained with anti-GFP to optimize the detection of green fluorescent autophagosomes. The number of inflammatory nodules, AT-containing globules and autophagosomes were each quantified blindly by counting cells in 6 microscopic fields of 10 different sections for each liver. The number of nuclei, as determined by Hoechst staining, was used to exclude the possibility that different numbers of cells were counted in liver sections from mice treated with CBZ as compared to controls. Hepatic hydroxyproline concentration was determined by a well-established protocol (20,21).\nTherapeutic regimens For the initial series of experiments in mice in vivo, the dose of 250 mg/kg/day for CBZ was based on previous studies of its biological effects in mice (22,23). […] CBZ was administered in DMSO by gavage once per day. Control mice were given an equivalent volume of DMSO by gavage. In a second series of experiments, doses of 200, 100 and 50 mg/kg/day of CBZ were administered for 6 weeks. The dose and route of administration of RAP, 2 mg/kg/day by intraperitoneal injection for 2 weeks, was based on previous studies that have shown activation of hepatic autophagy (24)."}, "APP-PS1 mouse": {"test_system": "APP-PS1 mouse", "assay": "Plaque load and Aβ ELISA in APP-PS1 mouse model of AD", "format": "in vivo", "details": "APP-PS1 mice, 200 mg/kg/day gavage, 5 doses per wk, 3 wks", "from_the_text": "The APP-PS1 mouse model of AD is associated with accelerated amyloid deposition with plaques resembling AD in humans starting to appear at 12 weeks of age (12) and progressive behavioral changes starting at 6 months of age (55, 56). Only a limited number of mice were available at the ideal age, 9 wks, at the time of the study, so the pilot study was very small. 9-12 wks of age was selected as the ideal age because it represents the age with the earliest consistent appearance of AP deposition in APP-PS1 mice. Mice were treated by orogastric gavage with CBZ 200 mg/kg/day, 5 doses per wk, for 3 wks; n=2 for CBZ and n=4 for vehicle (DMSO). Brain sections were stained with X-34, antibodies to Aβ1-40 and Aβ1-42 to determine plaque load using techniques as described previously (57)."}, "PiZ mice [3]": {"test_system": "PiZ mice", "assay": "Pulmonary fibrosis in PiZ mice (Sirius Red staining with quantitative morphometry)", "format": "in vivo, mouse", "details": "3-month-old PiZ mice, 200 mg/kg/day, 5 days per week for 3 weeks", "experimental": "Experiments were performed to determine if CBZ can mediate a decrease in lung fibrosis in the PiZ mouse in vivo. 3-month-old PiZ mice were treated 5 days per week for 3 weeks with diluent DMSO or CBZ 200 mg/kg/day (n=3-8 mice per group). In this series of experiments lung fibrosis was assayed by Sirius Red staining with quantitative morphometry."}}}
{"compound": "NC(=O)N1c2ccccc2C=Cc2ccccc21", "note": "[CBZ, 5H-dibenz [b,f]azepine-5-carboxamide]", "values": [{"measurement": "total protein synthesis or secretion (radioactivity in TCA precipitates)", "setting": "[1]; HTO/Z cells", "result": "did not show any effects"}, {"measurement": "synthesis of ATZ", "setting": "[1]; pulse labeling 30 mins after 48 hours CBZ", "result": "did not affect"}, {"measurement": "secretion of ATZ", "setting": "[1]; pulse-chase, CBZ 30 μM", "result": "could not be attributed to enhanced secretion"}, {"measurement": "half-time of disappearance of ATZ from the intracellular compartment", "setting": "[1]; pulse-chase, CBZ 30 μM, 200 min in untreated cells", "result": 130, "unit": "min"}, {"measurement": "serum concentrations of human AT", "setting": "human AT", "result": "not significantly affected"}, {"measurement": "hepatic hydroxyproline concentrations", "setting": "PiZ mice [2]; 200 mg kg-1 day-1 for 6 weeks", "result": "decreased"}, {"measurement": "hepatic fibrosis (Sirius red)", "setting": "PiZ mice [2]; 250 mg kg-1 for 2 weeks, FIG. 4E", "result": "marked decrease"}, {"measurement": "decrease of hepatic hydroxyproline content", "setting": "PiZ mice [2]; PiZ mice vs untreated PiZ, FIG. 7", "result": 46.7, "unit": "%"}, {"measurement": "lowest effective dose (hepatic hydroxyproline)", "setting": "PiZ mice [2]; PiZ mice, 6 weeks", "result": 200, "unit": "mg/kg/day"}, {"measurement": "hepatic hydroxyproline concentration", "setting": "PiZ mice [2]; PiZ mice, mean±SD, control 2.27±1.02, P=0.0074", "result": "1.21 ± 0.7", "unit": "µg/mg dry weight"}, {"measurement": "soluble and insoluble Aβ1-40 and Aβ1-42 by ELISA", "setting": "APP-PS1 mouse", "result": "trend toward lower values"}, {"measurement": "plaque load (X-34, anti-Aβ1-40, anti-Aβ1-42 staining)", "setting": "APP-PS1 mouse; n=2", "result": "marked reduction"}, {"measurement": "Sirius red staining of lung (pulmonary fibrosis)", "setting": "PiZ mice [3]", "result": "statistically significant reduction"}]}
